Structures are written as SMILES.

Here are results for 6 compounds from US20150307491A1, “SUBSTITUTED PYRIDOPYRAZINES AS SYK INHIBITORS” (HUTCHISON MEDIPHARMA LIMITED, priority 2012, published 2015).

Assay [1] has as its target T1, Recombinant human KDR (VEGFR-2) (Homo sapiens, UniProt P35968).
T1 construct: purchased Invitrogen PV3660
As to the kind of experiment: Transcreener kinase assay of VEGFR-2 (KDR). It is filed as biochemical. The conditions noted are these: Poly E4Y substrate. How it is done: Transcreener kinase assay of VEGFR-2 (KDR)
1. Solution preparation • 1) Transcreenen™ KINASE Assy kit: Bellbrook Labs, 3003-10 K; • 2) Recombinant human KDR: Invitrogen, PV3660; • 3) Poly E4Y (substrate): Sigma, P0275; 5 mg/mL, dissolved in MilliQ water; • 4) Assay buffer: 67 mM HEPES, 0.013% Triton X-100, 27 mM MgCl2, 0.67 mM MnCl2 1.25 mM DTT, PH 7.4; • 5) 10 mM ATP: Invitrogen, PV3227; • 6) 500 mM EDTA: Invitrogen, 15575-038; • 7) 96 well black Greiner plate: Greiner, 675076.
2. Prepare solution • 1) Dilute the compound to 5 folds of final concentrations, keeping the DMSO concentration at 5%. The final concentrations are 1, 0.33, 0.11, 0.037, 0.012, 0.004, 0.0014, 0.0005 μM; and the final concentration of DMSO is 1%. • 2) Prepare Enzyme/Substrate stock, Recombinant human KDR and Poly E4Y are both diluted in assay buffer. The final concentration is KDR (0.3 ng/μL), Poly E4Y (62.5 ng/μL). The mixture is keeping on ice surface before use; • 3) Prepare ATP Diluents, 10 mM ATP is diluted in assay buffer, the final concentration is 25 μM; • 4) Prepare ADP Diluents: diluted ADP (500 μM) in assay buffer, the final concentration is 25 μM; • 5) Prepare ATP standard curve stock as following:
3. Enzymatic reaction • 1) Add 5 μL of compound or control. (positive control, 5 μL of 5% DMSO; negative control, 5 μL of 500 mM EDTA); • 2) Add 10 μL of Enzyme/Substrate stock; • 3) Add 10 μL of ATP Diluents to begin the enzyme reaction and mix on plate shaker; • 4) Add 5 μL 5% DMSO, 10 μL of assay buffer and 10 μL of ATP standard curve stock into standard curve wells; • 5) Incubate at 28° C. for 45 min, keeping plate in gently shaking.
4. Stop reaction and detect ADP • 1) Prepare Detection Mix: diluted ADP Alexa633 tracer (1:100), ADP antibody (1:158), and stop & detect buffer (1:10) by MilliQ water; • 2) Prepare Tracer Only control: diluted ADP Alexa633 tracer (1:100) and stop & detect buffer (1:10) by MilliQ water; • 3) Prepare No Tracer control: diluted stop & detect buffer (1:10) by MilliQ water; • 4) Add 25 μL of detection mix, Tracer Only control and No Tracer control into corresponding wells, respectively; • 5) Incubate at 28° C. for 1 h, keeping plate in gently shaking; • 6) Measure florescence polarization (FP) on TECAN F500. Excitation wavelength: 610 nm, Emission wavelength: 670 nm.
Wherein: • 1) Compound well [ADP] represents the ADP concentration of compound well. • 2) Positive control well [ADP] represents the ADP concentration of 5% DMSO well • 3) Conversion of mP value to ADP concentration based on the formula which determined by standard curve.
IC50: calculated using XL-Fit 2.0 software.

The next assay concerns the target T2, Flt3 kinase (Homo sapiens, UniProt P36888).
T2 construct: purchased Invitrogen PV3182
T2 sequence (P36888 564-993 limits assumed): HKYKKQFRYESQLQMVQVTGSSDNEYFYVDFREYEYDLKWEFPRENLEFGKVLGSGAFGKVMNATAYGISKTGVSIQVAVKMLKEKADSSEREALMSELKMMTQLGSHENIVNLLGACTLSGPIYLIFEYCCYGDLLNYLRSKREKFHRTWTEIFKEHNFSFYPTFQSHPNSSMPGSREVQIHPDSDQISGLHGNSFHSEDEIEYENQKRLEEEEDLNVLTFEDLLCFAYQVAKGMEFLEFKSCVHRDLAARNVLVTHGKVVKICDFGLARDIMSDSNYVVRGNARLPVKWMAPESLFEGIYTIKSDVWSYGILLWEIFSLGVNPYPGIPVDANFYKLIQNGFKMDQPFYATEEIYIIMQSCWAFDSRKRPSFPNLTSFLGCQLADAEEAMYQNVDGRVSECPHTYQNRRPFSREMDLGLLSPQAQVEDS
As to the kind of experiment: Z-lyte kinase assay of Flt-3. The assay is classed as biochemical. The conditions noted are these: Z-LYTE Tyr 2 peptide; final concentrations 3 to 0.0014 μM. The protocol:
Z-lyte kinase assay of Flt-3:
Dilute 5× Kinase Buffer to 1,33× with ddH2O
Serially dilute the test compounds to 4 folds of the concentrations desired, keeping the DMSO concentration at 8%. The final concentrations were 3, 1, 0.33, 0.11, 0.037, 0.012, 0.004, 0.0014 μM, and the final concentration of DMSO was 2%,
Prepare Kinase/Peptide Mixture by diluting the kinase to 0.12 μg/mL and the Z-LYTE™ Tyr 2 peptide to 4 μM in 1.33× Kinase Buffer. Mix gently by pipetting. 4) Phcspho-peptide Solution (PP solution)
Add 0.4 μL of Z-LYTE™ Tyr 2 Phospho-peptide to 99.6 μL of 1.33× Kinase Buffer.
Prepare ATP Solution by diluting the 10 mM of ATP in 1.33× Kinase Buffer to 1.88 mM.
Dilute Development Reagent A with Development Buffer as 1:64.
1) Kinase reaction (10 μL of Volume) • a. Add 2.5 μL of 4× test Cpds to each well except C1, C2, C3 wells
Add 2.5 μL of 8% DMSO to C1, C2, C3 wells • b. Put the 384-plate on ice • c. Add 5 μL of P/K mixture to each test Cpd wells and C1, C2 wells • d. Add 5 μL of PP Solution to C3 well • e. Add 2.5 μL of 1,33× kinase buffer to C1 and C3 wells • f. Add 2.5 μL of 4×ATP Solution to each test Cpd wells and C2 well, respectively.
Shake the plate for 30 Sec and centrifuge (1500 rpm, 1 min) • g. Seal the plate to protect from the light and incubate the plate for 1 hour at RT (25-30° C.) 2) Development reaction • a. Add 5 μL of the Development solution to all wells • b. Shake the plate for 30 Sec and centrifuge (1500 rpm, 1 min) • c. Seal the plate to protect from the light and incubate the plate for 1 hour at RT (25-30° C.) 3) Stop and read • a. Add 5 μL of the Stop reagent to all wells • b. Shake the plate for 30 Sec and centrifuge (1500 rpm, 1 min) • c. Measure the value of Coumarin (Ex400 nm, Em445 nm) and fluorescein (Ex400 nm, Em520 nm), respectively. 4. Data analysis
Emission Ratio (ER) Coumarin Emission (445 nm)/Fluorescein Emission (520 nm)
inhibition ratio (IR)=1−% Photest Cpd/% PhoC2%
IC50 Value: determined with add-in software for Microsoft Excel, XLfit™ (version 2.0) from ID Business Solutions (Guildford: UK)

In the next assay the test system is RBL-2H3 cells. Nature of the assay: IgE-induced Beta-hexosaminidase secretion in RBL-2H3 cells. It is filed as cell-based. Conditions: Rattus norvegicus; RBL-2H3 cells sensitized with SPE-7, stimulated with DNP-BSA. How it is done: For the determination of IgE-induced Beta-hexosaminidase secretion, RBL-2H3 cells (SIBS) are seeded in 96 well plates at 4×10^4 cells per well and incubated in MEM media with 15% FBS and Glutamine ([…]) for 4 hours and sensitized with 0.5 ug/ml of SPE-7 overnight. Cells are washed 3 times with Tyrode's buffer and incubated in the presence or absence of various concentrations of the testing compound for 20 min at 37° C., 5% CO2. Cells are stimulated by adding 10 μL of DNP-BSA solution (150 ng/mL) to each well and incubating for 45 minutes at 37° C., 5% CO2. Then, 45 μL of the supernatant is taken and incubated with 100 μL of 1 mM 4-Nitrophenyl N-acetyl-β-D-glucosaminide (Sigma, Cat. No. N9376), which is diluted in 0.05 M citrate buffer (pH 4.5), for 1.5 hr at 37° C. The reactions are quenched by adding 185 μL of 0.05 M sodium carbonate buffer (pH 10.0). Plates are read at 405 nm on Multiskan (MK 3).

T1 sequence (P35968 789-1356 limits assumed): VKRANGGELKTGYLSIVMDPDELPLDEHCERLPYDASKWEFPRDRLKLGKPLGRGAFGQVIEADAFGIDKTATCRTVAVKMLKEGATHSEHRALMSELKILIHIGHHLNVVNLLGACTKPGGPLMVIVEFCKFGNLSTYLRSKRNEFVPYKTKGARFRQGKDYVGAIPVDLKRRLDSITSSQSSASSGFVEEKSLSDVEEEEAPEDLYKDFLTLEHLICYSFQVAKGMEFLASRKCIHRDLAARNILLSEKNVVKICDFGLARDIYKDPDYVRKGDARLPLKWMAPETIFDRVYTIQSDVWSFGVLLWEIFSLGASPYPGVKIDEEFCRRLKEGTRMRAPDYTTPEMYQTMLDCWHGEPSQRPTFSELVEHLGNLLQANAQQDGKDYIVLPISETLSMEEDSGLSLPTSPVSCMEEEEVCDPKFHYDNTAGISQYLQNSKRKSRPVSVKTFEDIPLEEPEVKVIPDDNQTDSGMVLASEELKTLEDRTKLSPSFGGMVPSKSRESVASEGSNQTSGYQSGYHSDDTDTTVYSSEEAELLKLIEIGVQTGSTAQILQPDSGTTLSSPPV

Broadly, the IC50 is the concentration needed to halve the response being measured. `CN(C)c1ccc(-c2cc3nccnc3c(OC[C@@H]3CN(S(C)(=O)=O)CCO3)n2)cc1Cl` [Compound 108]: the 50% inhibitory concentration (IC50) in assay [1] is more than 3 µM; at Flt3 kinase, 2.42 µM; in the assay on RBL-2H3 cells it was 0.001 to 0.1 µM.
In the same order, the values of `COc1ccc(-c2cc3nccnc3c(OC[C@@H]3CN(S(C)(=O)=O)CCO3)n2)cc1OC` [Compound 43] are more than 3 µM, 1.6 µM and 0.001 to 0.1 µM.
`CS(=O)(=O)N1CCN(c2ccc(-c3cc4nccnc4c(OC[C@@H]4CN(S(C)(=O)=O)CCO4)n3)cc2)CC1` [Compound 26]: the IC50 in assay [1] is 1.6 µM; in the assay with RBL-2H3 cells it was 0.1 to 1 µM.
As for `CN(C)c1ccc(-c2cc3nccnc3c(OC[C@@H]3CN(S(C)(=O)=O)CCO3)n2)cc1F` [Compound 53], the IC50 is 2.96 µM in assay [1] and 0.001 to 0.1 µM in the assay on RBL-2H3 cells.
The like results for `CC(=O)N1CCC(c2ccc(-c3cc4nccnc4c(OC[C@@H]4CN(S(C)(=O)=O)CCO4)n3)cc2)CC1` [Compound 33] were, in that order, 1.33 µM and 0.001 to 0.1 µM.
On to `CS(=O)(=O)N1CCC(c2ccc(-c3cc4nccnc4c(OC[C@@H]4CN(S(C)(=O)=O)CCO4)n3)cc2)CC1` [Compound 57, (S)-4-(methylsulfonyl)-2-((7-(4-(1-(methylsulfonyl)piperidin-4-yl)phenyl)pyrido[4,3,-b]pyrazin-5-yloxy)methyl)morpholine], for which the 50% inhibitory concentration (IC50) in assay [1] was 1.56 µM; against Flt3 kinase, 1.64 µM; in the assay with RBL-2H3 cells, 0.001 to 0.1 µM.
